Reference: US8569481B2, “Capture compounds, collections thereof and methods for analyzing the proteome and complex compositions” (Pharmaceuticals, Inc., priority 2001, dated 2013)

Biological target: Cytochrome C (Bos taurus, UniProt P62894)
Assay: Time course reaction of cytochrome C with a non-specific capture compound, analyzed by MALDI-TOF mass spectrometry
Assay type: binding
Description: Four different capture compounds (designated HKC 1341 (2,5-dioxopyrrolidin-1-yl acetate), HKC 1343 (2,5-dioxopyrrolidin-1-yl 4-(hydroxybis(4-methoxyphenyl)methyl)benzoate), HKC 1349 (1-(4-((3-(2-hydroxyethoxy)phenyl)(phenyl)(3-phenylpropoxy)methyl)benzoyl)-1H-pyrrole-2,5-dione), and HKC 1365 (3-((4-((2,5-dioxopyrrolidin-1-yloxy)carbonyl)phenyl)diphenylmethoxy)propane-1,2-diyl dipalmitate)) were reacted individually with Cytochrome C (accession number: P00006, FIG. 20c). The capture experiments were analyzed using MALDI-TOF Mass Spectrometry. Binding was performed in 20 μL sample volumes with 5 μM Cytochrome C concentrations in 25 mM HEPES buffer solution, pH 7.0. The trityl-based capture compounds were added to the protein solution at a 10 μM concentration. […] The reaction was quenched using 1 μL of a 100 mM TRIZMA base solution. The capture compound-protein binding mixture was prepared for mass spectrometry analysis by mixing a 1 μL aliquot of the binding reaction with 1 μL of a 10 mg/mL sinapinic acid in 30% aqueous acetonitrile. The sample was deposited as a […] spot on the surface of mass target plates and subsequently air-dried before mass spectrometric analyses.

Chain of Cytochrome C (P62894 whole entry): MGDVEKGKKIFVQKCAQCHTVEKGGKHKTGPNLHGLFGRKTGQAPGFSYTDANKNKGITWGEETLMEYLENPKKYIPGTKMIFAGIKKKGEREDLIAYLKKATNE

modifications of cytochrome C resulting from binding of the capture compound (after 30 minutes (middle spectrum, FIG. 20f)): 1-9 | modifications of cytochrome C resulting from binding of the capture compound (time 0 (top spectrum, FIG. 20f)): no modification
Structure (SMILES): CC(=O)ON1C(=O)CCC1=O [HKC 1341, 2,5-dioxopyrrolidin-1-yl acetate]
